Experimental findings from patent US6369088B2, “Substituted 3-phenyl-5-alkoxy-1,3,4-oxadiazol-2-ones, their preparation and their use as pharmaceuticals” (Aventis Pharma Deutschland GmbH, priority 2000, dated 2002) are described below.

A word on the melting point: it is the temperature, or range, at which the solid turns liquid.

In turn, `COc1nn(-c2ccc(NC(=O)c3ccc(C(C)(C)C)cc3)c(F)c2)c(=O)o1` [Example 87, 5-Methoxy-3-(3-fluoro-4-(4-tert-butylbenzoylamino)phenyl)-3H-(1,3,4)oxadiazol-2-one] had a melting point of 144 °C.

Take `COc1nn(-c2ccc(NC(=O)c3ccc(Cl)c(Cl)c3)cc2)c(=O)o1` [Example 72, 5-Methoxy-3-(4-(3,4-dichlorobenzoylamino)phenyl)-3H-(1,3,4)oxadiazol-2-one]: the melting point is 200 °C.

As to `COc1nn(-c2ccc(NC(=O)Cc3ccc(Cl)cc3)c(C)c2)c(=O)o1` [Example 31, 5-Methoxy-3-(4-(4-chlorophenylacetylamino)-3-methylphenyl)-3H-(1,3,4)oxadiazol-2-one], the melting point worked out at 190 °C.

`COc1nn(-c2ccc(NC(=O)CCCCl)c(C)c2)c(=O)o1` [Example 35, 5-Methoxy-3-(4-(4-chlorobutanoylamino)-3-methylphenyl)-3H-(1,3,4)oxadiazol-2-one] gave a melting point of 137 °C.

With `COc1ccc2cc(C(=O)Nc3ccc(-n4nc(OC)oc4=O)cc3)oc2c1` [Example 90, 5-Methoxy-3-(4-(6-methoxybenzofuran-2-yl-carbonylamino)phenyl)-3H-(1,3,4)oxadiazol-2-one], the melting point was 191 °C.

As to `COc1nn(-c2ccc(NC(=O)N3CCCCC3)c(C)c2)c(=O)o1` [Example 89, 5-Methoxy-3-(3-methyl-4-piperidinocarbonylaminophenyl)-3H-(1,3,4)oxadiazol-2-one], the melting point stood at 154 °C.

`Cc1cc(-n2nc(OC(C)(C)C)oc2=O)ccc1NC(=O)OCc1ccccc1` [Example 78, 5-tert-Butoxy-3-(3-methyl-4-benzyloxycarbonylaminophenyl)-3H-(1,3,4)oxadiazol-2-one]: the melting point worked out at 113 °C.

Molecule `CCCCOC(=O)Nc1ccc(-n2nc(OC(C)C)oc2=O)cc1C` [Example 76, 5-isopropoxy-3-(3-methyl-4-butyloxycarbonylaminophenyl)-3H-(1,3,4)oxadiazol-2-one] displayed a melting point of 114 °C.

`COc1nn(-c2ccc(NS(=O)(=O)c3cccc(Cl)c3)cc2)c(=O)o1` [Example 45, 5-Methoxy-3-(4-(3-chlorophenylsulfonylamino)phenyl)-3H-(1,3,4)oxadiazol-2-one]: the melting point was 141 °C.

`COc1nn(-c2ccc(NC(=O)NC3Cc4ccccc4C3)c(C)c2)c(=O)o1` [Example 81, 5-Methoxy-3-(3-methyl-4-(indan-2-ylaminocarbonylamino)phenyl)-3H-(1,3,4)oxadiazol-2-one] registered a melting point of 206 °C.

As to `COc1nn(-c2ccc(NS(=O)(=O)C(C)C)cc2)c(=O)o1` [Example 49, 5-Methoxy-3-(4-isopropylsulfonylaminophenyl)-3H-(1,3,4)oxadiazol-2-one], the melting point was 190 °C.

In turn, `COc1nn(-c2ccc(N(C)C)c(C)c2)c(=O)o1` [Example 50, 5-Methoxy-3-(4-dimethylamino-3-methylphenyl)-3H-(1,3,4)oxad iazol-2-one] registered a melting point of 71 °C.

With `COc1nn(-c2ccc(NC(=O)C(C)(C)Oc3ccc(Cl)cc3)cc2)c(=O)o1` [Example 73, 5-Methoxy-3-(4-(2-(4-chlorophenoxy)-2-methylpropionylamino)phenyl)-3H-(1,3,4)oxadiazol-2-one], the melting point came out at 153 °C.

`COc1nn(-c2ccc(NC(=O)c3ccc(C(F)(F)F)cc3)c(OCc3ccccc3)c2)c(=O)o1` [Example 86, 5-Methoxy-3-(3-benzyloxy-4-(4-trifluoromethylbenzoylamino)phenyl)-3H-(1,3,4)oxadiazol-2-one] came in with a melting point of 159 °C.

For the molecule `COc1nn(-c2ccc(NS(=O)(=O)Cc3ccccc3)cc2)c(=O)o1` [Example 47, 5-Methoxy-3-(4-benzylsulfonylaminophenyl)-3H-(1,3,4)oxadiazol-2-one], the melting point came to 153 °C.

As to `COc1nn(-c2ccc(NC(=O)OCc3ccccc3)cc2Cl)c(=O)o1` [Example 67, 5-Methoxy-3-(2-chloro-4-benzyloxycarbonylaminophenyl)-3H-(1,3,4)oxadiazol-2-one], the melting point worked out at 150 °C.

As for `COc1nn(-c2ccc([N+](=O)[O-])c(F)c2)c(=O)o1`, the melting point is 127 °C.

In the case of `COc1nn(-c2cccc(N)c2)c(=O)o1` [Example 56, 5-Methoxy-3-(3-aminophenyl)-3H-(1,3,4)oxadiazol-2-one], the melting point is 95 °C.

In the case of `COc1nn(-c2ccc(NC(=O)OCc3cccnc3)c(C)c2)c(=O)o1` [Example 83, 5-Methoxy-3-(3-methyl-4-(pyrid-3-ylmethoxycarbonylamino)phenyl)-3H-(1,3,4)oxadiazol-2-one], the melting point was 232 °C.

As for `COc1nn(-c2ccc(NC(=O)Cc3ccc(Cl)cc3)c(OCc3ccc(F)cc3)c2)c(=O)o1` [Example 46, 5-Methoxy-3-(4-(4-chlorophenylacetylamino)-3-(4-fluorobenzyloxy)phenyl)-3H-(1,3,4)oxadiazol-2-one], the melting point stood at 167 °C.

`COc1nn(-c2ccc(Oc3ccc(Cl)cc3)c(N)c2)c(=O)o1` [Example 27, 5-Methoxy-3-(3-amino-4-(4-chlorophenoxy)phenyl)-3H-(1,3,4)oxadiazol-2-one] had a melting point of 133 °C.

As for `COc1nn(-c2ccc(N)c(OCc3ccc(F)cc3)c2)c(=O)o1` [Example 29, 5-Methoxy-3-(4-amino-3-(4-fluorobenzyloxy)phenyl)-3H-(1,3,4)oxadiazol-2-one], the melting point was determined as 195 °C.

As to `COc1nn(-c2cccc(N(Cc3ccccc3)Cc3ccccc3)c2)c(=O)o1` [Example 57, 5-Methoxy-3-(3-dibenzylaminophenyl)-3H-(1,3,4)oxadiazol-2-one], the melting point worked out at 71 °C.

`COc1nn(-c2ccc(NC(=O)NCc3cccnc3)c(C)c2)c(=O)o1` [Example 82, 5-Methoxy-3-(3-methyl-4-(pyrid-3-ylmethylaminocarbonylamino)phenyl)-3H-(1,3, 4)oxadiazol-2-one] registered a melting point of 229 °C.

Consider `COc1nn(-c2ccc(NC(=O)Nc3ccccn3)cc2)c(=O)o1` [Example 59, 5-Methoxy-3-(4-(pyrid-2-yl)aminocarbonylaminophenyl)-3H-(1,3,4)oxadiazol-2-one], for which the melting point was found to be 81 °C.

`COc1nn(-c2ccc(NC(=O)Oc3ccccc3)c(C)c2)c(=O)o1` showed a melting point of 145 °C.

Take `COc1nn(-c2ccc(NC(=O)OCC(F)(F)F)c(C)c2)c(=O)o1` [Example 88, 5-Methoxy-3-(3-methyl-4-(2,2,2-trifluoroethoxycarbonylamino)phenyl)-3H-(1,3, 4)oxadiazol-2-one]: the melting point came out at 141 °C.

`Cc1cc(-n2nc(OC(C)C)oc2=O)ccc1NC(=O)OCc1ccccc1` [Example 75, 5-isopropoxy-3-(3-methyl-4-benzyloxycarbonylaminophenyl)-3H-(1,3,4)oxadiazol-2-one] had a melting point of 119 °C.

On to `COc1nn(-c2ccc([N+](=O)[O-])cc2C)c(=O)o1` [Example 23, 5-Methoxy-3-(2-methyl-4-nitrophenyl)-3H-(1,3,4)oxadiazol-2-one], for which the melting point is 111 °C.

As for `COc1nn(-c2ccc([N+](=O)[O-])c(C)c2)c(=O)o1` [Example 20, 5-Methoxy-3-(3-methyl-4-nitrophenyl)-3H-(1,3,4)oxadiazol-2-one], the melting point was found to be 112 °C.

For `COc1nn(-c2ccc(NS(=O)(=O)c3ccccc3Cl)cc2)c(=O)o1` [Example 44, 5-Methoxy-3-(4-(2-chlorophenylsulfonylamino)phenyl)-3H-(1,3,4)oxadiazol-2-one], the melting point was determined as 171 °C.

In turn, `COc1nn(-c2ccc(NC(=O)C(C)(C)C)c(C)c2)c(=O)o1` [Example 36, 5-Methoxy-3-(4-pivaloylamino-3-methylphenyl)-3H-(1,3,4)oxadiazol-2-one] displayed a melting point of 157 °C.

For `COc1nn(-c2ccc(NS(=O)(=O)c3ccc(Cl)cc3)cc2)c(=O)o1` [Example 43, 5-Methoxy-3-(4-(4-chlorophenylsulfonylamino)phenyl)-3H-(1,3,4)oxadiazol-2-one], the melting point came out at 169 °C.

For the molecule `CNc1ccc(-n2nc(OC)oc2=O)cc1OCc1ccc(F)cc1` [Example 55, 5-Methoxy-3-(3-(4-fluorobenzyloxy)-4-methylaminophenyl)-3H-(1,3,4)oxadiazol-2-one], the melting point is 98 °C.

`COc1nn(-c2ccc([N+](=O)[O-])c(OCc3ccc(F)cc3)c2)c(=O)o1` [Example 24, 5-Methoxy-3-(3-(4-fluorobenzyloxy)-4-nitrophenyl)-3H-(1,3,4)oxadiazol-2-one] registered a melting point of 137 °C.

The molecule `COc1nn(-c2ccc(NC(=O)c3ccc(OC(F)(F)F)cc3)cc2C)c(=O)o1` [Example 66, 5-Methoxy-3-(2-methyl-4-(4-trifluoromethoxybenzoylamino)phenyl)-3H-(1,3,4)oxadiazol-2-one] yielded a melting point of 150 °C.

Regarding `COc1nn(-c2ccc([N+](=O)[O-])cc2Cl)c(=O)o1` [Example 64, 5-Methoxy-3-(2-chloro-4-nitrophenyl)-3H-(1,3,4)oxadiazol-2-one], the melting point turned out to be 92 °C.

`COc1nn(-c2ccc(NS(=O)(=O)CC(F)(F)F)c(C)c2)c(=O)o1` [Example 40, 5-Methoxy-3-(4-(2,2,2-trifluoroethylsulfonylamino)-3-methylphenyl)-3H-(1,3,4)oxadiazol-2-one] displayed a melting point of 151 °C.

Molecule `COc1nn(-c2ccc(N)cc2Cl)c(=O)o1` [Example 63, 5-Methoxy-3-(4-amino-2-chlorophenyl)-3H-(1,3,4)oxadiazol-2-one] returned a melting point of 126 °C.

`Cc1cc(-n2nc(OC(C)C)oc2=O)ccc1NC(=O)Nc1cccc(Cl)c1` [Example 77, 5-isopropoxy-3-(3-methyl-4-(3-chlorophenylaminocarbonylamino)phenyl)-3H-(1,3,4)oxadiazol-2-one]: the melting point is 201 °C.

Take `COc1nn(-c2ccc(NC(=O)OCc3ccc(Cl)cc3)cc2)c(=O)o1` [Example 70, 5-Methoxy-3-(4-(4-chlorobenzyloxycarbonylamino)phenyl)-3H-(1,3,4)oxadiazol-2-one]: the melting point turned out to be 177 °C.
